Experimental findings from patent US11285156B2, “Substituted piperazines as KRAS G12C inhibitors” (Amgen Inc., priority 2018, dated 2022) are described below.

The structures appear in SMILES notation. Like-named read-outs stand apart in the source and are kept apart here. Where only a bound is given, the exact number is not on record here.

The target in test [1] is GDP-bound KRAS protein (aa 1-169), containing both G12C and C118A amino acid substitutions (Homo sapiens (Human), UniProt P01116, C118A/G12C). Briefly: Coupled nucleotide exchange assay (SOS-mediated nucleotide exchange, AlphaScreen). Type of test: biochemical. To be noted: 5 min compound pre-incubation; for IC50: read-out: Coupled exchange IC50 (5 min; μM).
Test [2] deals with Phosphorylation of ERK1/2 in MIA PaCa-2 cells. Briefly: Phospho-ERK1/2 MSD assay in MIA PaCa-2 cells. It counts as cell-based. The following applies: read-out: p-ERK IC50 (2 h, MiaPaCa-2; μM), 2 h compound treatment, MIA PaCa-2 cells, EGF stimulated. Summed up:
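Phospho-ERK1/2 measured by MSD electrochemiluminescence kit in RIPA lysates of MIA PaCa-2 cells. Cells were treated with compound titrations for 2 or 4 h at 37 °C, 5% CO2, followed by a 10 min pulse of 10 ng/mL EGF.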

The subject of test [3] is Phosphorylation of ERK1/2 in A549 cells. The experiment in a line: Phospho-ERK1/2 MSD assay in A549 cells. Type of test: cell-based. The following applies: read-out: p-ERK IC50 (2 h, A549; μM), 2 h compound treatment, A549 cells, EGF stimulated. Summed up: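 MSD electrochemiluminescent read-out of phospho-ERK1/2 in RIPA lysates. Cells in RPMI 1640 with 10% FBS received titrated compound for 2 or 4 h, then 10 ng/mL EGF for 10 min before ice-cold PBS wash and lysis.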

Chain of GDP-bound KRAS protein (aa 1-169), containing both G12C and C118A amino acid substitutions (P01116 other isoform, or with tags, fused parts or gaps G12C/C118A): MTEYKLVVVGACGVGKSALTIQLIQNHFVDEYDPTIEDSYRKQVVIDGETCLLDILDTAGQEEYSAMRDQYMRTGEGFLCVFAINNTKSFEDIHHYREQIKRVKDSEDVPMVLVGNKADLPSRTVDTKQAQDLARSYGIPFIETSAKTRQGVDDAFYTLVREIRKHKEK

Broadly, the IC50 is the concentration needed to halve the response being measured. Turning to `C=CC(=O)N1C[C@H](C)N(c2nc(=O)n(-c3c(C)ccnc3C(C)C)c3nc(-c4cc(C#CC)ccc4F)c(Cl)cc23)C[C@H]1C` (atropisomer, axis not shown; (M)) [Example 92-39, (M)-6-Chloro-4-[(2S,5R)-2,5-dimethyl-4-prop-2-enoyl-piperazin-1-yl]-7-(2-fluoro-5-prop-1-ynyl-phenyl)-1-(2-isopropyl-4-methyl-3-pyridyl)pyrido [2,3-d]pyrimidin-2-one], the IC50 was 0.032 µM in test [1]; 0.145 µM in test [2] (Homo sapiens, MIA PaCa-2, 2 h); over 7.5 µM in test [3] (Homo sapiens, A549, 2 h).

Turning to `C=CC(=O)N1CCN(c2nc(=O)n(-c3c(C)ccnc3C(C)C)c3nc(-c4ccccc4F)c(Cl)cc23)CC1CC#N` (atropisomer, axis not shown; (M)) [Example 145-2, (M)-2-[4-[6-Chloro-7-(2-fluorophenyl)-1-(2-isopropyl-4-methyl-3-pyridyl)-2-oxo-pyrido[2,3-d]pyrimidin-4-yl]-1-prop-2-enoyl-piperazin-2-yl]acetonitrile], the half-inhibitory concentration (IC50) in test [1] is 0.344 µM; in test [2] it was 1.68 µM; in test [3] (Homo sapiens, A549, 2 h), over 7.5 µM.

Consider `C=CC(=O)N1C[C@H](C)N(c2nc(=O)n(-c3c(C)ccnc3C(C)C)c3nc(-c4cccc(Cl)c4F)c(Cl)cc23)C[C@H]1C` (atropisomer, axis not shown; (M)) [Example 92-46, (M)-6-Chloro-7-(3-chloro-2-fluoro-phenyl)-4-[(2S,5R)-2,5-dimethyl-4-prop-2-enoyl-piperazin-1-yl]-1-(2-isopropyl-4-methyl-3-pyridyl)pyrido [2,3-d]pyrimidin-2-one], for which the IC50 in test [1] is 0.023 µM; in test [2] (Homo sapiens, MIA PaCa-2, 2 h), 0.032 µM; in test [3] (Homo sapiens, A549, 2 h), over 7.5 µM.

For the compound `C=CC(=O)N1C[C@H](C)N(c2nc(=O)n(-c3c(CN4CCCC4)cccc3C(C)C)c3nc(-c4ccccc4F)c(Cl)cc23)C[C@H]1C` [Example 80-10, 6-Chloro-4-[(2S,5R)-2,5-dimethyl-4-prop-2-enoyl-piperazin-1-yl]-7-(2-fluorophenyl)-1-[2-isopropyl-6-(pyrrolidin-1-ylmethyl)phenyl]pyrido[2,3-d]pyrimidin-2-one], the half-inhibitory concentration (IC50) in test [1] is 0.077 µM; in test [2] (Homo sapiens, MIA PaCa-2, 2 h), 0.063 µM; in test [3] (Homo sapiens, A549, 2 h), over 7.5 µM.

In the case of `C#Cc1ccccc1-c1nc2c(cc1Cl)c(N1C[C@@H](C)N(C(=O)C=C)C[C@@H]1C)nc(=O)n2-c1c(C)ccnc1C(C)C` (atropisomer, axis not shown; (M)) [Example 92-47, (M)-6-Chloro-4-[(2S,5R)-2,5-dimethyl-4-prop-2-enoyl-piperazin-1-yl]-7-(2-ethynylphenyl)-1-(2-isopropyl-4-methyl-3-pyridyl)pyrido [2,3-d]pyrimidin-2-one], the IC50 in test [1] was 0.057 µM; in test [2] (Homo sapiens, MIA PaCa-2, 2 h), 0.049 µM; in test [3] (Homo sapiens, A549, 2 h), over 7.5 µM.

As to `C=CC(=O)N1C[C@H](C)N(c2nc(=O)n(-c3c(C)ccnc3C(C)C)c3nc(-c4cccc(C)c4)c(Cl)cc23)C[C@H]1C` (atropisomer, axis not shown; (M)) [Example 92-53, (M)-6-Chloro-4-[(2S,5R)-2,5-dimethyl-4-prop-2-enoyl-piperazin-1-yl]-1-(2-isopropyl-4-methyl-3-pyridyl)-7-(m-tolyl)pyrido[2,3-d]pyrimidin-2-one], the IC50 in test [1] was 0.135 µM; in test [2] (Homo sapiens, MIA PaCa-2, 2 h), 0.309 µM; in test [3] (Homo sapiens, A549, 2 h), over 7.5 µM.

As to `C=CC(=O)N1C[C@H](C)N(c2nc(=O)n(-c3c(C)nc(N(C)C)nc3C(C)C)c3nc(-c4ccccc4F)c(Cl)cc23)C[C@H]1C` (single isomer, unassigned) [Example 196], the “Coupled exchange IC50 (5 min; μM)” value in test [1] is 0.048 µM. In addition, the half-maximal inhibitory concentration (IC50) in test [2] (Homo sapiens, MIA PaCa-2, 2 h) was 0.097 µM; in test [3] (Homo sapiens, A549, 2 h) it was over 7.5 µM.

As to `C=CC(=O)N1C[C@H](C)N(c2nc(=O)n(-c3c(C)ncnc3C(C)C)c3nc(-c4ccccc4F)c(Cl)cc23)C[C@H]1C` [Example 194, 4-((2S,5R)-4-Acryloyl-2,5-dimethylpiperazin-1-yl)-6-chloro-7-(2-fluorophenyl)-1-(4-isopropyl-6-methylpyrimidin-5-yl)pyrido[2,3-d]pyrimidin-2(1H)-one], the concentration for half-maximal inhibition (IC50) is 0.186 µM in test [1]; 0.048 µM in test [2] (Homo sapiens, MIA PaCa-2, 2 h); over 7.5 µM in test [3] (Homo sapiens, A549, 2 h).

For `C=CC(=O)N1C[C@H](C)N(c2nc(=O)n(-c3c(N)ncnc3C(C)C)c3nc(-c4ccccc4F)c(Cl)cc23)C[C@H]1C` [Example 189, 4-((2S,5R)-4-Acryloyl-2,5-dimethylpiperazin-1-yl)-1-(4-amino-6-isopropylpyrimidin-5-yl)-6-chloro-7-(2-fluorophenyl)pyrido[2,3-d]pyrimidin-2(1H)-one], the IC50 in test [1] is 0.158 µM; in test [2] (Homo sapiens, MIA PaCa-2, 2 h), 0.209 µM; in test [3] (Homo sapiens, A549, 2 h) it was over 7.5 µM.

With `C=CC(=O)N1C[C@H](C)N(c2nc(=O)n(-c3c(C(C)C)nc(C)nc3C(C)C)c3nc(-c4ccccc4F)c(Cl)cc23)C[C@H]1C` [Example 167, 6-Chloro-1-(4,6-diisopropyl-2-methyl-pyrimidin-5-yl)-4-[(2S,5R)-2,5-dimethyl-4-prop-2-enoyl-piperazin-1-yl]-7-(2-fluorophenyl)pyrido[2,3-d]pyrimidin-2-one], the half-maximal inhibitory concentration (IC50) in test [1] was 0.052 µM; in test [2] (Homo sapiens, MIA PaCa-2, 2 h), 0.083 µM; in test [3] (Homo sapiens, A549, 2 h), over 7.5 µM.

`C=CC(=O)N1C[C@H](C)N(c2nc(=O)n(-c3c(C(C)C)cnn3C(C)C)c3nc(-c4ccccc4F)c(Cl)cc23)C[C@H]1C` (single isomer, unassigned) [Example 100-1-1]: the half-maximal inhibitory concentration (IC50) in test [1] is 0.061 µM; in test [2], 0.091 µM; in test [3], over 7.5 µM.

Regarding `C=CC(=O)N1C[C@H](C)N(c2nc(=O)n(C)c3nc(-c4ccccc4F)c(Cl)cc23)C[C@H]1C` [Example 55-59, 6-Chloro-4-[(2S,5R)-2,5-dimethyl-4-prop-2-enoyl-piperazin-1-yl]-7-(2-fluorophenyl)-1-methyl-pyrido[2,3-d]pyrimidin-2-one], the IC50 in test [1] was 174 µM; in test [2] (Homo sapiens, MIA PaCa-2, 2 h) it was 10 µM; in test [3] (Homo sapiens, A549, 2 h) it was over 7.5 µM.

Take `C=CC(=O)N1C[C@H](C)N(c2nc(=O)n(-c3c(Cl)ncnc3C(C)C)c3nc(-c4ccccc4F)c(Cl)cc23)C[C@H]1C` [Example 102-5, 6-Chloro-1-(4-chloro-6-isopropyl-pyrimidin-5-yl)-4-[(2S,5R)-2,5-dimethyl-4-prop-2-enoyl-piperazin-1-yl]-7-(2-fluorophenyl) pyrido[2,3-d]pyrimidin-2-one]: the IC50 is 0.071 µM in test [1]; 0.084 µM in test [2]; over 7.5 µM in test [3] (Homo sapiens, A549, 2 h).

With `C=CC(=O)N1C[C@H](C)N(c2nc(=O)n(-c3c(C)ccnc3C(C)C)c3nc(-c4c(F)cccc4Cl)c(F)cc23)C[C@H]1C` (atropisomer, axis not shown; (M)) [Example 94-12, (M)-7-(2-Chloro-6-fluoro-phenyl)-4-[(25,5R)-2,5-dimethyl-4-prop-2-enoyl-piperazin-1-yl]-6-fluoro-1-(2-isopropyl-4-methyl-3-pyridyl)pyrido [2,3-d]pyrimidin-2-one], the 50% inhibitory concentration (IC50) is 0.184 µM in test [1]; 0.128 µM in test [2] (Homo sapiens, MIA PaCa-2, 2 h); over 7.5 µM in test [3] (Homo sapiens, A549, 2 h).

For the compound `C=CC(=O)N1CCN(c2nc(=O)n(-c3c(C)ccnc3C(C)C)c3nc(-c4c(N)cccc4F)c(Cl)cc23)C[C@H]1C` (atropisomer, axis not shown; (M)) [Example 92-2, (M)-7-(2-Amino-6-fluoro-phenyl)-6-chloro-1-(2-isopropyl-4-methyl-3-pyridyl)-4-[(3R)-3-methyl-4-prop-2-enoyl-piperazin-1-yl]pyrido[2,3-d]pyrimidin-2-one], the IC50 in test [1] was 0.024 µM; in test [2] it was 0.035 µM; in test [3], over 7.5 µM.

For the compound `C=CC(=O)N1C[C@H](C)N(c2nc(=O)n(-c3c(C)ccnc3C(C)C)c3nc(-c4cccc(F)c4F)c(Cl)cc23)C[C@H]1C` (atropisomer, axis not shown; (M)) [Example 92-66, (M)-6-Chloro-7-(2,3-difluorophenyl)-4-[(2S,5R)-2,5-dimethyl-4-prop-2-enoyl-piperazin-1-yl]-1-(2-isopropyl-4-methyl-3-pyridyl)pyrido [2,3-d]pyrimidin-2-one], the half-inhibitory concentration (IC50) is 0.034 µM in test [1]; 0.033 µM in test [2] (Homo sapiens, MIA PaCa-2, 2 h); over 7.5 µM in test [3] (Homo sapiens, A549, 2 h).

Take `C=CC(=O)N1C[C@H](C)N(c2nc(=O)n(-c3c(C(C)C)ncnc3C3CC3)c3nc(-c4ccccc4C)c(Cl)cc23)C[C@H]1C` [Example 108-2, 6-Chloro-1-(4-cyclopropyl-6-isopropyl-pyrimidin-5-yl)-4-[(2S,5R)-2,5-dimethyl-4-prop-2-enoyl-piperazin-1-yl]-7-(o-tolyl)pyrido[2,3-d]pyrimidin-2-one]: the 50% inhibitory concentration (IC50) in test [1] was 0.049 µM; in test [2], 0.032 µM; in test [3] (Homo sapiens, A549, 2 h), over 7.5 µM.

For the compound `C=CC(=O)N1C[C@H](C)N(c2nc(=O)n(-c3c(C)ccnc3C(C)C)c3nc(-c4ccccc4NC(=O)OC)c(Cl)cc23)C[C@H]1C` (atropisomer, axis not shown; (M)) [Example 129-7, (M)-Methyl-N-[2-[6-chloro-4-[(2S,5R)-2,5-dimethyl-4-prop-2-enoyl-piperazin-1-yl]-1-(2-isopropyl-4-methyl-3-pyridyl)-2-oxo-pyrido[2,3-d]pyrimidin-7-yl]phenyl]carbamate], the 50% inhibitory concentration (IC50) was 0.064 µM in test [1]; 0.025 µM in test [2] (Homo sapiens, MIA PaCa-2, 2 h); over 7.5 µM in test [3] (Homo sapiens, A549, 2 h).
